Molecular target: T1, Caspase-3 (Homo sapiens, UniProt P42574)
T1 sequence (P42574 whole entry): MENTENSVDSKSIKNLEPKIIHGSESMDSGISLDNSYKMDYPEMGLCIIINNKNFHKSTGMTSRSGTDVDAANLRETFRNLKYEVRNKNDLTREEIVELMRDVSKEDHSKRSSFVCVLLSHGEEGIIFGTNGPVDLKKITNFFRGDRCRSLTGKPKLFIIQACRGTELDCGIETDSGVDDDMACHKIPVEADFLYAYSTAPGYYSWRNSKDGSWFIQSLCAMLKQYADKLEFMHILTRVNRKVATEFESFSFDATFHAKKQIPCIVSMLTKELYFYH
Test: activation of caspase-3 zymogen – biochemical, absorbance, dose response (AID 489014)

O=C(CC1=NC2(CCCC2)Cc2ccccc21)C(=O)NN=Cc1ccccc1O [SMR000219463]
EC50: > 85.3 µM

O=c1c2c(-c3ccccc3)[nH]n(-c3ccccc3)c-2c(O)n1-c1ccccc1 [SMR000269383]
EC50: > 85.3 µM

Reference: BindingDB's records for doi:10.7270/Q2Z31X4P (The Scripps Research Institute Molecular Screening Center, 2010)
